This is an account of results in article PMC9496155, “Amaryllidaceae Alkaloids Decrease the Proliferation, Invasion, and Secretion of Clinically Relevant Cytokines by Cultured Human Colon Cancer Cells” (Biomolecules, 2022).

One test deals with CoN. The test can be described thus: MTT viability assay, CoN normal colon epithelial cell line. In kind it is cell-based, human. Particulars: 72 h of exposure, mean of six replicates of one experiment, read-out: IC50 Normal Cell Line (N) CoN. Here is the method:
(§1) HCT-116 (CCL-247), LoVo (CCL-229), DLD-1 (CCL-221), HT-29 (HTB-38) and CoN (CCD-841) human CRC cells were obtained from the ATCC (Manassas, VA, USA). HCT-116 cells were cultured in Dulbecco’s Modified Eagle’s Medium (DMEM; Corning Cellgro, Corning, NY, USA) for the invasion assays or RPMI-1640 medium (Lonza, Westburg, The Netherlands) for all other assays. The LoVo, DLD-1, and HT-29 cell lines were grown in RPMI-1640 for all experiments. Media were supplemented with 10% fetal bovine serum (FBS; Gibco, Waltham, MA, USA or Greiner Bio-One, Vilvoorde, Belgium), 100 U/mL penicillin, and 100 µg/mL streptomycin (Gibco, Waltham, MA). Cells were grown at 37 °C and 5% CO2 in a humidified atmosphere. The CoN cells were cultured in Eagle’s Minimum Essential Medium (Lonza, Westburg, The Netherlands) supplemented with 10% FBS (South America origin, Greiner Bio-One, Vilvoorde, Belgium). HCT-116 p53^-/- cells were obtained from Denis L.J. LaFontaine, Université Libre de Bruxelles, Brussels, Belgium.
(§2) Effects of compounds on viability were assessed by means of 3-(4,5-dimethylthiazol-2-yl)-2,5-diphenyltetrazolium bromide (MTT; Sigma-Aldrich, Diegem, Belgium) colorimetric assay as previously reported. Briefly, cells were seeded in flat-bottom 96-well plates at the appropriate cell density 24 h prior to the exposure or not to the compound of interest. Each compound was first solubilized in dimethylsulfoxide (DMSO) at 10^−2 M concentration and further diluted in a serial manner in the culture medium. Nine concentrations ranging from 10 nM to 100 µM were tested in sextuplicate within the assay. Evaluation of the cell viability was conducted after 72 h of exposure to the compound by means of MTT assay.

In the next test the test system is MMP-1, -2, -7, -9, -13. The test can be described thus: Luminex assay of MMP secretion in HCT-116 and LoVo cell supernatants. In kind it is cell-based, human. Particulars: 0.08 µM; 24 h; both cell lines (HCT-116, LoVo). From the text:
(§3) We ordered a customized Luminex® assay to quantify 15 targets at once from Biotechne (reference LXSAHM-15; R&D Systems, Abingdon, U.K.). The 15 targets were chosen on the basis of the literature as follows: the relevant metalloproteinases MMP-1, -2, -7, -9, -13 [49] and the cytokines associated with dismal prognosis or shorter disease-free survival period: C-C motif chemokine ligand (CCL) -4, CCL-22, Flt-3 ligand, IL-1β, IL-2, IL-6, IL-8, interferon gamma (IFNγ), vascular endothelial growth factor (VEGF), and pentraxin-3 [50]. Samples were prepared as follows: HCT-116 or LoVo cells were seeded in 6-well plates and allowed to adhere and grow until they reached 70% confluency. The culture medium was replaced by 1.5 mL of culture medium containing only 0.5% of FBS with or without the compounds to be tested (NAR at 80 nM, LYC at 6 µM, and HAE at 6 µM). After 24 h of treatment, supernatants were collected, aliquoted, and kept frozen at −80 °C. Three independent series of samples were prepared. […] We thus decided to concentrate several aliquots of our supernatant samples by centrifugation of 500 µL of supernatant with Amicon Ultra 0.5 mL filters characterized by a 3 kDa cut-off (UFC500324; Millipore, Merck, Hoeilaart, Belgium) leading to a final volume of 150 µL (3.3 times concentrated). The Luminex® assay was conducted according to manufacturer’s recommendations. Data were collected on a Bioplex-200 (Bio-Rad, Temse, Belgium).

The subject of another test is LoVo. The test can be described thus: MTT viability assay, LoVo. Particulars: 72 h of exposure, TP53 wild type, mean of six replicates of one experiment, read-out: IC50 Cancer Cell Lines (C) LoVo. In kind it is cell-based, human. On the procedure: as §1, §2
The subject of a further test is DLD-1. Put plainly: MTT viability assay, DLD-1. In kind it is cell-based, human. As to conditions: 72 h of exposure, TP53 mutant, mean of six replicates of one experiment, read-out: IC50 Cancer Cell Lines (C) DLD-1. Here is the method:
as §1, §2

In test [1] the test system is Cancer Cell Lines (LoVo, HCT-116^+/+, HCT-116^-/-, HT-29, DLD-1). Put plainly: MTT viability assay, mean over the five colon cancer cell lines and ratio to CoN. In kind it is cell-based, human. Here is the method:
as §1, §2

A further test relates to IL-8. Put plainly: Luminex assay of IL-8 in HCT-116 and LoVo cell supernatants. In kind it is cell-based, human. Particulars: HCT-116 cells; NAR 80 nM; 24 h; in comparison to LYC.
Description: as §3, with “Data were collected on a Bioplex-200 (Bio-Rad, Temse, Belgium).” left out

Test [2] deals with subpanel of CRC cell lines. As to conditions: NCI DTD 60 cell line screen; cited from earlier work.
For another test, the system named is HCT-116^-/-. Put plainly: MTT viability assay, HCT-116-/- (p53-null). In kind it is cell-based, human. As to conditions: 72 h of exposure, mean of six replicates of one experiment, read-out: IC50 Cancer Cell Lines (C) HCT-116-/-. On the procedure: as §1, §2
Another test relates to HCT-116^+/+. The test can be described thus: MTT viability assay, HCT-116+/+. In kind it is cell-based, human. Particulars: 72 h of exposure, functional p53, mean of six replicates of one experiment, read-out: IC50 Cancer Cell Lines (C) HCT-116+/+. On the procedure: as §1, §2
Another test deals with LoVo cells. Put plainly: Adhesion assay (crystal violet), LoVo. In kind it is cell-based, human. Particulars: 0.08 µM, 15 h, 0.5% FBS, one experiment. On the procedure:
To evaluate the effects of the compounds on cell adhesion, 75000 HCT-116 or LoVo cells per well were seeded in 96-well flat-bottom plates in the presence or absence of each compound tested at three concentrations. In the first set of experiments, cells were allowed to adhere for 1, 5, 8, and 24 h and cultured with 10% FBS. Three independent experiments were performed each in sextuplicate to examine the time course of adhesion when grown with 10% FBS and increasing concentrations of each compound. In the second set of experiments cells were allowed to adhere for 15 h in a medium containing only 0.5% FBS to limit the contribution of proliferation to the results.
At the end of the incubation period, the plate was rinsed with phosphate buffered saline (PBS), fixed with 17.5% of formaldehyde at 4 °C for 15 min, and washed with deionized water twice before staining with 0.1% crystal violet (Sigma-Aldrich, Diegem, Belgium) in a 50:50 methanol/water mixture for 15 min. After extensive washes with water to remove any free crystal violet, the dye within the cells was extracted and solubilized in 100 µL of a 33% acetic acid solution and absorbance was measured at 570 nm (680XR, Bio-Rad Laboratories, Berkeley, CA, USA; reference wavelength 610 nm). The mean absorbance of the untreated control well was set at 100% for comparison. […]

With `O=C1N[C@@H]2C(=C[C@H](O)[C@@H](O)[C@H]2O)c2cc3c(c(O)c21)OCO3` [NAR, narciclasine], the IC50 with CoN is 1100 nM; in the test on LoVo, 52 nM; in the test on DLD-1, 30 nM; in test [1] (mean over five cancer cell lines, MTT, 72 h, read-out: Mean IC50 Cancer Cells) it was 33 nM; in the test on HCT-116^-/-, 29 nM; with HCT-116^+/+, 23 nM. In the test with MMP-1, -2, -7, -9, -13, the “secretion of MMP-1, -2, and -7” value is on record as “markedly decrease”. The “Ratio N/C” value in test [1] (IC50 CoN / mean IC50 cancer cells) stood at 32. Besides, the “times more potent than PANC” value in [1] (MTT IC50 comparison NAR vs PANC) stood at 10 times. Moreover, the IL-8 levels result in the test on IL-8 is recorded as “opposite effects”. Further, in test [2], the GI50 was 45.7 nM. Moreover, the “maximal inhibition of cell adhesion” value with LoVo cells amounted to 18%.
